Measured values published in US9302999B2, “Substituted triazoles as herbicides” (E. I. DU PONT DE NEMOURS AND COMPANY, priority 2012, dated 2016).

Legend:
Format in all cases: in vivo
[1] = system: wheat, winter (winter wheat, Triticum aestivum); assay: Test D pre-/postemergence: wheat, winter
Source text: (§1) Seeds of plant species selected from bluegrass (annual bluegrass, Poa annua), blackgrass (Alopecurus myosuroides), canarygrass (Phalaris minor), chickweed (common chickweed, Stellaria media), galium (catchweed bedstraw, Galium aparine), bromegrass, downy (downy bromegrass, Bromus tectorum), field poppy (Papaver rhoeas), field violet (Viola arvensis), foxtail, green (green foxtail, Setaria viridis), deadnettle (henbit deadnettle, Lamium amplexicaule), ryegrass, Italian (Italian ryegrass, Lolium multiflorum), kochia (Kochia scoparia), lambsquarters (Chenopodium album), oilseed rape (Brassica napus), pigweed (Amaranthus retroflexus), Russian thistle (Salsola iberica), chamomile (scentless chamomile, Matricaria inodora), speedwell (bird's-eye speedwell, Veronica persica), barley, spring (spring barley, Hordeum vulgare), wheat, spring (spring wheat, Triticum aestivum), buckwheat, wild (wild buckwheat, Polygonum convolvulus), mustard, wild (wild mustard, Sinapis arvensis), oat, wild (wild oat, Avena fatua), radish, wild (wild radish, Raphanus raphanistrum), windgrass (Apera spica-venti), barley, winter (winter barley, Hordeum vulgare), and wheat, winter (winter wheat, Triticum aestivum) were planted into a silt loam soil and treated preemergence with test chemicals formulated in a non-phytotoxic solvent mixture which included a surfactant. At the same time, these same crop and weed species were planted in pots containing the planting medium comprising spaghnum peat moss, vermiculite, wetting agent and starter nutrients and treated with postemergence applications of the test chemicals formulated in the same manner. Plants ranged in height from 2 to 18 cm (1- to 4-leaf stage).
(§2) Treated plants and controls were maintained in a controlled growth environment for 14 to 21 days after which time all species were compared to controls and visually evaluated. Plant response ratings, summarized in Table D, are based on a scale of 0 to 100 where 0 is no effect and 100 is complete control. A dash (-) response means no test result.

[2] = system: oilseed rape (Brassica napus); assay: Test D pre-/postemergence: oilseed rape
Source text: as §1, §2

[3] = system: mustard, wild (wild mustard, Sinapis arvensis); assay: Test D pre-/postemergence: mustard, wild
Source text: as §1, §2

[4] = system: foxtail, green (green foxtail, Setaria viridis); assay: Test D pre-/postemergence: foxtail, green
Procedure, shortened: (§3)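 Visual control ratings (0–100) after 14–21 days, controlled environment. Preemergence on silt loam; postemergence on 2–18 cm plants.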

[5] = system: oat, wild (wild oat, Avena fatua); assay: Test D pre-/postemergence: oat, wild
Procedure, shortened: as §3

[6] = system: crabgrass, Brazil (Brazilian crabgrass, Digitaria horizontalis); assay: Test F pre-/postemergence: crabgrass, Brazil; details: Postemergence, scale 0 to 100
Source text: Seeds of plant species selected from corn (Zea mays), soybean (Glycine max), velvetleaf (Abutilon theophrasti), lambsquarters (Chenopodium album), poinsettia, wild (wild poinsettia, Euphorbia heterophylla), pigweed, palmer (palmer pigweed, Amaranthus palmeri), waterhemp (common waterhemp, Amaranthus rudis), surinam grass (Brachiaria decumbens), crabgrass, Brazil (Brazilian crabgrass, Digitaria horizontalis), panicum, fall (fall panicum Panicum dichotomiflorum), crabgrass, large (large crabgrass, Digitaria sanguinalis), foxtail, giant (giant foxtail, Setaria faberii), foxtail, green (green foxtail Setaria viridis), goosegrass (Eleusine indica), ragweed (common ragweed, Ambrosia elatior), barnyardgrass (Echinochloa crus-galli), sandbur (southern sandbur, Cenchrus echinatus), arrowleaf sida (Sida rhombifolia), ryegrass, Italian (Italian ryegrass, Lolium multiflorum), dayflower, VA (Virginia (VA) dayflower, Commelina virginica), field bindweed (Convolvulus arvensis), cocklebur (common cocklebur, Xanthium strumarium), morningglory (Ipomoea coccinea), nightshade (eastern black nightshade, Solanum ptycanthum), kochia (Kochia scoparia), nutsedge, yellow (yellow nutsedge, Cyperus esculentus), johnsongrass (Sorghum halepense), smartweed (ladysthumb smartweed, Polygonum persicaria), and beggarticks (hairy beggarticks, Bidens pilosa), were planted into a silt loam soil and treated preemergence with test chemicals formulated in a non-phytotoxic solvent mixture which included a surfactant. At the same time, plants selected from these crop and weed species and also pigweed (Amaranthus retroflexus), waterhemp_RES1 (ALS/Triazine resistant common waterhemp, Amaranthus rudis) and waterhemp_RES2 (ALS/HPPD resistant common waterhemp, Amaranthus rudis) were planted in pots containing a planting medium comprising spaghnum peat moss, vermiculite, wetting agent and starter nutrients treated with postemergence applications of some of the test chemicals formulated in the same manner. Plants ranged in height from 2 to 18 cm for postemergence treatments (1- to 4-leaf stage).
as §2, with “greenhouse” for “controlled growth environment”, “days,” for “days”, “E,” for “D,”

[7] = Postemergence, 31 g ai/ha, scale 0 to 100 (0 no effect, 100 complete control)
[8] = Postemergence, 62 g ai/ha, scale 0 to 100 (0 no effect, 100 complete control)
[9] = Postemergence, 125 g ai/ha, scale 0 to 100, 0 no effect, 100 complete control
[10] = Postemergence, 250 g ai/ha, scale 0 to 100 (0 no effect, 100 complete control)
[11] = Postemergence, 16 g ai/ha, scale 0 to 100
[12] = Preemergence, 16 g ai/ha, scale 0 to 100, 0 no effect, 100 complete control
[13] = Preemergence, 31 g ai/ha, scale 0 to 100, 0 no effect, 100 complete control
[14] = Preemergence, 62 g ai/ha, scale 0 to 100
[15] = Preemergence, 125 g ai/ha, scale 0 to 100
[16] = Preemergence, 250 g ai/ha, scale 0 to 100

## Cc1nn(-c2ccc(C(F)(F)F)cc2)nc1Oc1ccnc(C(F)(F)F)c1 [Compound 120]
[1]; [7]
  Plant response rating: Wheat, Winter: 5
[1]; [8]
  Plant response rating: Wheat, Winter: 10
[1]; [9]
  Plant response rating: Wheat, Winter: 15
[1]; [10]
  Plant response rating: Wheat, Winter: 20
[1]; [11]
  Plant response rating, Wheat, Winter: 5
[1]; [12]
  Plant response rating, Wheat, Winter: 0
[1]; [13]
  Plant response rating, Wheat, Winter: 0
[1]; [14]
  Plant response rating, Wheat, Winter: 5
[1]; [15]
  Plant response rating, Wheat, Winter: 5
[1]; [16]
  Plant response rating, Wheat, Winter: 10
[2]; [7]
  Plant response rating: Oilseed Rape: 50
[2]; [8]
  Plant response rating: Oilseed Rape: 80
[2]; [9]
  Plant response rating: Oilseed Rape: 90
[2]; [10]
  Plant response rating: Oilseed Rape: 98
[2]; [11]
  Plant response rating, Oilseed Rape: 20
[2]; [12]
  Plant response rating, Oilseed Rape: 0
[2]; [13]
  Plant response rating, Oilseed Rape: 10
[2]; [14]
  Plant response rating, Oilseed Rape: 10
[2]; [15]
  Plant response rating, Oilseed Rape: 30
[2]; [16]
  Plant response rating, Oilseed Rape: 70
[3]; [12]
  Plant response rating, Mustard, Wild: 0
[3]; [14]
  Plant response rating, Mustard, Wild: 90
[3]; [15]
  Plant response rating, Mustard, Wild: 100
[3]; [16]
  Plant response rating, Mustard, Wild: 100
[4]; [7]
  Plant response rating: Foxtail, Green: 15
[4]; [8]
  Plant response rating: Foxtail, Green: 80
[4]; [9]
  Plant response rating: Foxtail, Green: 95
[4]; [10]
  Plant response rating: Foxtail, Green: 100
[4]; [11]
  Plant response rating, Foxtail, Green: 5
[4]; [12]
  Plant response rating, Foxtail, Green: 70
[4]; [13]
  Plant response rating, Foxtail, Green: 100
[4]; [14]
  Plant response rating, Foxtail, Green: 100
[4]; [15]
  Plant response rating, Foxtail, Green: 100
[4]; [16]
  Plant response rating, Foxtail, Green: 100
[5]; [7]
  Plant response rating: Oat, Wild: 10
[5]; [8]
  Plant response rating: Oat, Wild: 20
[5]; [9]
  Plant response rating: Oat, Wild: 35
[5]; [10]
  Plant response rating: Oat, Wild: 70
[5]; [11]
  Plant response rating, Oat, Wild: 10
[5]; [12]
  Plant response rating, Oat, Wild: 0
[5]; [13]
  Plant response rating, Oat, Wild: 5
[5]; [14]
  Plant response rating, Oat, Wild: 25
[5]; [15]
  Plant response rating, Oat, Wild: 55
[5]; [16]
  Plant response rating, Oat, Wild: 100

## COc1nn(-c2ccc(C(F)(F)F)cc2)nc1Cc1ccnc(C(F)F)c1 [Compound 138]
[1]; [7]
  Plant response rating: Wheat, Winter: 20
[1]; [8]
  Plant response rating: Wheat, Winter: 20
[1]; [9]
  Plant response rating: Wheat, Winter: 20
[1]; [10]
  Plant response rating: Wheat, Winter: 25
[1]; [11]
  Plant response rating, Wheat, Winter: 10
[2]; [7]
  Plant response rating: Oilseed Rape: 95
[2]; [8]
  Plant response rating: Oilseed Rape: 100
[2]; [9]
  Plant response rating: Oilseed Rape: 100
[2]; [10]
  Plant response rating: Oilseed Rape: 100
[2]; [11]
  Plant response rating, Oilseed Rape: 85
[3]; [7]
  Plant response rating: Mustard, Wild: 90
[3]; [8]
  Plant response rating: Mustard, Wild: 95
[3]; [9]
  Plant response rating: Mustard, Wild: 100
[3]; [10]
  Plant response rating: Mustard, Wild: 100
[3]; [11]
  Plant response rating, Mustard, Wild: 75
[4]; [7]
  Plant response rating: Foxtail, Green: 40
[4]; [8]
  Plant response rating: Foxtail, Green: 75
[4]; [9]
  Plant response rating: Foxtail, Green: 80
[4]; [10]
  Plant response rating: Foxtail, Green: 100
[4]; [11]
  Plant response rating, Foxtail, Green: 20
[5]; [7]
  Plant response rating: Oat, Wild: 20
[5]; [8]
  Plant response rating: Oat, Wild: 30
[5]; [9]
  Plant response rating: Oat, Wild: 50
[5]; [10]
  Plant response rating: Oat, Wild: 75
[5]; [11]
  Plant response rating, Oat, Wild: 10

## Cc1nn(-c2ccnc(Cl)c2)nc1Cc1ccnc(C(F)(F)F)c1 [Compound 141]
[6]; 8 g ai/ha
  Plant response rating, Crabgrass, Brazil: 70
[6]; 16 g ai/ha
  Plant response rating, Crabgrass, Brazil: 80
[6]; 31 g ai/ha
  Plant response rating, Crabgrass, Brazil: 95
[6]; 62 g ai/ha
  Plant response rating, Crabgrass, Brazil: 95
[6]; 125 g ai/ha
  Plant response rating, Crabgrass, Brazil: 95
